The test system of data set [1] is Mycobacterium tuberculosis. Put plainly: Antimycobacterial activity against Mycobacterium tuberculosis H37Rv after 2 weeks by BACTEC 460 radiometric method. The format is functional. The conditions noted are these: 336 h.
The subject of data set [2] is Vero. In words: Cytotoxicity against african green monkey Vero cells up to 62.5 ug/mL after 72 hrs by MTT assay. The format is cell-based. Conditions: chlorocebus sabaeus.

≈ marks a conversion by molar mass, not a printed value.

A word on the MIC: it is the least concentration at which growth counts as inhibited. Regarding `COc1cc2c(cc1OC)C1=NN(C(=O)Nc3ccc(C)cc3C)C(c3ccccc3)C1C2` (stereo unspecified), in data set [1], the MIC is over 12.5 µM. In data set [1], `COc1ccc(C2C3Cc4cc(OC)c(OC)cc4C3=NN2C(N)=S)cc1OC` (stereo unspecified) came in with an MIC of 12.5 µM (≈ 5.17 µg/mL). In data set [1], `COc1ccc(C2C3Cc4cc(OC)c(OC)cc4C3=NN2C(=O)Nc2c(C)cccc2C)cc1OC` (stereo unspecified) returned an MIC of 12.5 µM (≈ 6.27 µg/mL). On to `COc1cc2c(cc1OC)C1=NN(C(N)=S)C(c3ccc(F)cc3)C1C2` (stereo unspecified), for which the Activity entry in data set [2] is “Non-toxic”. 3.12 µM (≈ 1.16 µg/mL) was the least that counted as inhibitory in data set [1] (MIC). For `COc1ccc(C2C3Cc4cc(OC)c(OC)cc4C3=NN2C(=O)Nc2c(C)cccc2C)cc1` (stereo unspecified), the minimal inhibitory concentration (MIC) in data set [1] was over 12.5 µM. For `COc1cc2c(cc1OC)C1=NN(C(N)=S)C(c3ccncc3)C1C2` (stereo unspecified), in data set [1], the MIC turned out to be 6.25 µM (≈ 2.22 µg/mL). `COc1cc2c(cc1OC)C1=NN(C(=O)Nc3c(C)cccc3C)C(c3ccccc3Cl)C1C2` (stereo unspecified) registered a minimal inhibitory concentration (MIC) in data set [1] of 6.25 µM (≈ 2.97 µg/mL). Turning to `COc1ccc(C2C3Cc4cc(OC)c(OC)cc4C3=NN2C(=O)Nc2ccc(C)cc2C)cc1` (stereo unspecified), in data set [1], the MIC was over 12.5 µM. Same read-out and setting: the value for `COc1ccc(C2C3Cc4cc(OC)c(OC)cc4C3=NN2C(=O)Nc2ccc(C)cc2C)cc1OC` (stereo unspecified) was 12.5 µM (≈ 6.27 µg/mL); that for `COc1cc2c(cc1OC)C1=NN(C(=O)Nc3c(C)cccc3C)C(c3ccc(F)cc3)C1C2` (stereo unspecified) was 6.25 µM (≈ 2.87 µg/mL). On the same count and under the same terms, the value for `COc1cc2c(cc1OC)C1=NN(C(=O)Nc3ccc(C)cc3C)C(c3ccccc3Cl)C1C2` (stereo unspecified) was 6.25 µM (≈ 2.97 µg/mL).

In the case of `NNC(=O)c1ccncc1` [ISONIAZID], it took 0.78 µM (≈ 0.107 µg/mL) to inhibit growth in data set [1] (MIC). In data set [1], `COc1cc2c(cc1OC)C1=NN(C(N)=S)C(c3ccccc3Cl)C1C2` (stereo unspecified) gave a minimum inhibitory concentration (MIC) of 6.25 µM (≈ 2.42 µg/mL). `COc1cc2c(cc1OC)C1=NN(C(=O)Nc3c(C)cccc3C)C(c3ccccc3)C1C2` (stereo unspecified) yielded an MIC in data set [1] of 12.5 µM (≈ 5.52 µg/mL).

In data set [1], `COc1cc2c(cc1OC)C1=NN(C(=O)Nc3c(C)cccc3C)C(c3ccncc3)C1C2` (stereo unspecified) came in with an MIC of over 10 µM. With `COc1ccc(C2C3Cc4cc(OC)c(OC)cc4C3=NN2C(N)=S)cc1` (stereo unspecified), the MIC in data set [1] was determined as 12.5 µM (≈ 4.79 µg/mL). In data set [1], `CO[C@H]1/C=C/O[C@@]2(C)Oc3c(C)c(O)c4c(O)c(c(/C=N/N5CCN(C)CC5)c(O)c4c3C2=O)NC(=O)/C(C)=C\C=C\[C@H](C)[C@H](O)[C@@H](C)[C@@H](O)[C@@H](C)[C@H](OC(C)=O)[C@@H]1C` [RIFAMPIN] showed an MIC of 0.006 µM (≈ 0.00494 µg/mL). Compound `COc1cc2c(cc1OC)C1=NN(C(N)=S)C(c3ccccc3)C1C2` (stereo unspecified) returned an MIC in data set [1] of 12.5 µM (≈ 4.42 µg/mL). Compound `COc1cc2c(cc1OC)C1=NN(C(=O)Nc3ccc(C)cc3C)C(c3ccc(F)cc3)C1C2` (stereo unspecified) gave an MIC in data set [1] of 6.25 µM (≈ 2.87 µg/mL). With `COc1cc2c(cc1OC)C1=NN(C(=O)Nc3ccc(C)cc3C)C(c3ccncc3)C1C2` (stereo unspecified), inhibition of growth in data set [1] (MIC) required 10 µM (≈ 4.43 µg/mL).

For the origin of these results see ChEMBL document CHEMBL1821612, “Discovery of novel antitubercular 3a,4-dihydro-3H-indeno[1,2-c]pyrazole-2-carboxamide/carbothioamide analogues” (Bioorg Med Chem Lett, 2011).
